Laboratory results taken from patent publication US20060013801A1, “Prevention of and therapy for radiation toxicity of normal tissues using drugs which block il-1 activity” (priority 2002, published 2006).
“Also recorded” adds a separate entry of the source.

Experiments:
[1] = system: C-C and C-X-C chemokine receptors mRNA; assay: RNase protection assay, C-C and C-X-C chemokine receptor mRNA expression; type: in vivo, C3H/HeN mice
Description: (§1) Isotransplantable murine MCa-35 mammary tumor cells was inoculated i.m. into right hind thighs of 6-7 week-old female C3H/HeN mice (NCI, Fredrick, Md.). […] Mice were sacrificed 20 days after radiation.
(§2) Four experiment groups were used. […] Group 1 was radiation alone; mice in group 2 were given 50 mg/kg Celebrex 2 hours before radiation (2 hr pre-radiation); mice in group 3 and 4 were received the same amount of Celebrex at day 2 or day 7 post-radiation. […] All mice were sacrificed 20 day after radiation.
Total RNA was isolated from tumors and skin overlying tumors, respectively, with 9-10 mice in each treatment group by pulverizing the frozen tissue, and dissolved in TRI Reagent (Molecular Research Center, Ohio) according to the manufacturer's specifications.
Differences were considered significant for p<0.05.

MCP-1 mRNA = assay: RNase protection assay, MCP-1 mRNA expression; conditions: 60 Gy
Rantes mRNA = assay: RNase protection assay, Rantes mRNA expression; conditions: 60 Gy, 50 mg/kg Celebrex, vs 7.4±1.6 control, P<0.05, ratio to GAPDH or L32 mRNA
[2] = system: radiation (60 Gy) induced skin damage in MCa-35 mammary tumor-bearing mice; assay: Radiation induced skin damage by 5-scales Skin Scoring System; type: in vivo, C3H/HeN mice; conditions: for mice with severe skin damage (grades 4-5): 20 days after radiation
Description: as §1, §2
Radiation induce skin damage was assessed using 5-scales Skin Scoring System. 20 days after single 60 Gy radiation, mice from each treatment group were determined blindly for the degree of skin damage by three investigators. Grade 1: normal skin; grade 2: slight hair loss in irradiated area; grade 3: radish and swollen tissue; grad 4: small area erosion; grade 5: small ulceration. Grades 2-3 is referred as mild, and grades 4-5 is considered as severe skin damage.

MIP-2 mRNA = assay: RNase protection assay, MIP-2 mRNA expression
[3] = system: MCa-35 tumor and overlaying skin; assay: Histology of irradiated skin and MCa-35 tumor; type: in vivo, C3H/HeN mice
From the text: as §1
Tumors and the overlaying skin tissues were removed for histology and RNA preparation. Irradiated tissues (tumor and skin) were also collected for making paraffin blocks for immunohistochemical staining. Guidelines for the humane treatment of animals were followed as approved by the University of Rochester Committee on Animal Resources.
as §2
Immunohistochemistry methods have previously been described in detail. Immediately following cryostat sectioning, tissue slices (normal muscle and tumor) were stained with CD31 antibody (PharMingen Calif.) for determination of total vasculature. The stained sections were imaged using an epi-fluorescence equipped microscope, digitized (3-CCD camera), background-corrected, and image-analyzed using Image Pro software (Media Cybernetics, Mass.) and a 450 MHz Pentium computer. Color images from individual microscope fields were automatically acquired and digitally combined to form four montages of the tumor cross-section (total area=15.5 mm2) using a motorized stage and controller. The image montages were processed to enhance the contrast between background and CD31 staining. From the enhanced images, locations of CD31-stained vessels were recorded. The quantitative vascular information was analyzed using custom Fortran programs to perform a “closest individual” analysis as previously described. Briefly, the distances from computer-superimposed sampling points to the nearest blood vessel were determined. […]

## Cc1ccc(-c2cc(C(F)(F)F)nn2-c2ccc(S(N)(=O)=O)cc2)cc1 [Celebrex]
[1]; skin of Celebrex-treated mice with less radiation-induced skin damage
  CXCR4 mRNA expression: significantly reduced
[1]; tumor skin, 60 Gy, not in tumor tissues
  mRNA expression of both C-C and C-X-C chemokine receptors in tumor skin: decrease mRNA expression
MCP-1 mRNA; irradiated skin, 50 mg/kg Celebrex, vs 18.8±3.2 control, p<0.05, ratio to GAPDH or L32 mRNA
  MCP-1 mRNA expression in irradiated skin tissues: 10.2±1.1
MCP-1 mRNA; tumor tissue
  reduction of MCP-1 mRNA expression in tumor tissues: not in tumor tissues
Rantes mRNA
  Rantes mRNA expression in irradiated skin tissues: 2.3±1.1
[2]; 50 mg/kg daily gavage, 15 doses in three weeks, single 60 Gy
  effect on radiation induced normal skin damage: significantly reduced; also recorded: less radiation-induced skin damage
[2]; 50 mg/kg gavage started 2 hr pre-radiation, 15 doses, single 60 Gy
  mice with severe skin damage (grades 4-5): 17.6%
[2]; 50 mg/kg gavage started day 2 post-radiation, 15 doses, single 60 Gy
  mice with severe skin damage (grades 4-5): 5.3%
[2]; 50 mg/kg gavage started day 7 post-radiation, 10 doses, single 60 Gy
  mice with severe skin damage (grades 4-5): 11.1%
[2]; 60 Gy, Celebrex-treated mice
  treated mice that still developed moderate or severe skin damage after radiation: 15-30%
MIP-2 mRNA; after Celebrex treatment, 37.5% of mice with radiation alone
  tumor skin with high MIP-2 mRNA expression: 14.3%-28.6%
MIP-2 mRNA; tumor tissue, 60 Gy
  effect on tumor MIP-2 mRNA: did not significantly alter
[3]; oral administration, compared with saline-treated controls
  effect on MCa-35 tumor histology (blood vessels, necrosis): reduction of blood vessels
[3]; pre- (2 hr) or post-radiation (day 2 or day 7) treatment, compared with saline-treated controls
  inflammation and inflammatory cell infiltration in the dermis: less inflammation and cellular component infiltration in the dermis; also recorded: less infiltration of inflammatory cells
[3]; tumor tissue, compared with saline controls
  infiltration of inflammatory cells in tumor tissue: not obviously altered
